In US4882339A, “4-Amino-substituted 1,2-dihydroxynaphthalene derivatives useful in inhibiting 5-lipoxygenase activity in mammals” (Ciba-Geigy Corporation, priority 1987, dated 1989):
Where two headings read alike, the source gives them in different places.

Key:
5-lipoxygenase [1] = molecular target: T1, 5-lipoxygenase (Cavia porcellus, UniProt A0A286X958); assay: Inhibition of the synthesis of 5-HETE and LTB4 in A-23187-stimulated guinea pig polymorphonuclear leukocytes; format: cell-based; details: for IC50: in vitro
T1 construct: A-23187-stimulated guinea pig polymorphonuclear leukocytes; endogenous in cells; host or cells: guinea pig polymorphonuclear leukocytes
T1 sequence (A0A286X958 1-674): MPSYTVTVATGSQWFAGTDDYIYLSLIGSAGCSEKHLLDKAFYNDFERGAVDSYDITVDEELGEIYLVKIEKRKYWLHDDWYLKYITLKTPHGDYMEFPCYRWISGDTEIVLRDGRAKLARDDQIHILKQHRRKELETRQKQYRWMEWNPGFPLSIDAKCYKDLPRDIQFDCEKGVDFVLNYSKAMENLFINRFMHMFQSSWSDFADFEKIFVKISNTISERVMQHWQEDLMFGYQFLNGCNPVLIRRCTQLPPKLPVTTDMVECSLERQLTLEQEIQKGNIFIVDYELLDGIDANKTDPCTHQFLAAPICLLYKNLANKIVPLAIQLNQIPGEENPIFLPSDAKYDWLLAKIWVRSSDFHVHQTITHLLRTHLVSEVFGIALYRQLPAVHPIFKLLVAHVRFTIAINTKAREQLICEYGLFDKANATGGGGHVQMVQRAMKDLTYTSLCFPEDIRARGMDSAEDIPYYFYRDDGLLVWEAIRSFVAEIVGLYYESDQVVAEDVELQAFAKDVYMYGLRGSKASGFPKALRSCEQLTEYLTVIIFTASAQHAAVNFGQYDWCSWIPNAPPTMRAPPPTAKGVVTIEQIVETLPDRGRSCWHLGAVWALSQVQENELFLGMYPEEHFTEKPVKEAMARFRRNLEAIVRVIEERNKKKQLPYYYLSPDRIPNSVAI
Protocol: 5-Lipoxygenase inhibition is determined e.g. by measuring the percent inhibition of the synthesis of 5-HETE [(5S)-5-hydroxy-6,8,11,14-eicosa-tetraenoic acid] and leukotriene B4 (LTB4, 5,12-dihydroxy-6,8,10,14-eicosatetraenoic acid) in A-23187-stimulated guinea pig polymorphonuclear leukocytes, essentially according to radiometric thin-layer chromatogrpahic assays described by Walker and Dawson (J. Pharm. Pharmacol. 31: 778, 1979) and Jakschik and Lee (Nature 287: 51, 1980) used to measure the formation of 5-HETE and LTB4 -like products from ^14 C-arachidonic acid. IC50 values are determined graphically as the concentration of test compound at which the synthesis of 5-HETE and LTB4 -like products is reduced to 50% of their respective control values.

[2] = test system: rat pleurisy model of inflammation; assay: Carrageenin-induced pleurisy model of inflammation in the rat; format: in vivo; details: 30 mg/kg p.o. b.i.d. for two days; 48 hours after carrageenin
5-lipoxygenase [3] = assay: Ex vivo inhibition of 5-lipoxygenase (A-23187-stimulated LTB4 formation in whole blood), rat; details: about 10-100 mg/kg p.o.
Protocol: (§1) Furthermore the inhibition of 5-lipoxygenase in vivo is determined after oral or i.v. administration to rats or dogs by measuring ex vivo in whole blood the inhibition of A-23187-stimulated LTB4 formation as compared to non-treated control animals.

5-lipoxygenase [4] = assay: Ex vivo inhibition of 5-lipoxygenase (A-23187-stimulated LTB4 formation in whole blood), dog
Protocol: as §1

[5] = In vivo metabolite identification after administration of 4-(N-methylcyclohexylamino)-1,2-diacetoxynaphthalene

SMILES: CC(=O)Oc1cc(N(C)C2CCCCC2)c2ccccc2c1OC(C)=O [4-(N-methylcyclohexylamino)-1,2-diacetoxynaphthalene]
- IC50 (5-lipoxygenase [1]; read-out: IC50 for LTB4 formation): ~1000 nM
- inhibition of the formation of 5-HETE and leukotriene B4 (5-lipoxygenase [1]; result in words): inhibits the formation of 5-HETE [(5S)-5-hydroxy-6,8,11,14-eicosa-tetraenoic acid] and leukotriene B4
- cell count of monocytes [2]: lowers the cell count of polymorphonuclear leukocytes and of monocytes
- cell count of polymorphonuclear leukocytes [2]: lowers the cell count of polymorphonuclear leukocytes
- exudate volume [2]: causes inhibition of exudate volume
- inhibition of 5-lipoxygenase activity ex vivo (5-lipoxygenase [3]): inhibits 5-lipoxygenase activity
- inhibition of 5-lipoxygenase activity ex vivo (5-lipoxygenase [4]; 1 mg/kg i.v.): inhibits 5-lipoxygenase activity
- inhibition of 5-lipoxygenase activity ex vivo (5-lipoxygenase [4]; 100 mg/kg p.o.): inhibits 5-lipoxygenase activity

SMILES: CN(C1=CC(=O)C(=O)c2ccccc21)C1CCCCC1 [4-(N-methylcyclohexylamino)-1,2-naphthoquinone]
- IC50 (5-lipoxygenase [1]; read-out: IC50 for inhibition of the formation of LTB4): ~500 nM
- in vivo metabolite [5]: identified as an in vivo metabolite of 4-(N-methylcyclohexylamino)-1,2-diacetoxynaphthalene
